From patent US9669016B2, “Antiparasitic effect of Bis[3,5-Bis(Benzylidene)-4-Oxo-1-Piperidinyl]amide Derivatives” (priority 2014, dated 2017)

How the values were obtained:
[1] = target: trypanothione reductase (TR) from T. cruzi (Trypanosoma cruzi, UniProt P28593); test: Trypanothione reductase inhibition; format: biochemical; details: preliminary, unpublished data
[2] = target: lipoamide dehydrogenase (LipDH) also from T. cruzi (Trypanosoma cruzi, UniProt P90597); test: Lipoamide dehydrogenase inhibition; format: biochemical; details: preliminary, unpublished data
Chain of lipoamide dehydrogenase (LipDH) also from T. cruzi (P90597 whole entry): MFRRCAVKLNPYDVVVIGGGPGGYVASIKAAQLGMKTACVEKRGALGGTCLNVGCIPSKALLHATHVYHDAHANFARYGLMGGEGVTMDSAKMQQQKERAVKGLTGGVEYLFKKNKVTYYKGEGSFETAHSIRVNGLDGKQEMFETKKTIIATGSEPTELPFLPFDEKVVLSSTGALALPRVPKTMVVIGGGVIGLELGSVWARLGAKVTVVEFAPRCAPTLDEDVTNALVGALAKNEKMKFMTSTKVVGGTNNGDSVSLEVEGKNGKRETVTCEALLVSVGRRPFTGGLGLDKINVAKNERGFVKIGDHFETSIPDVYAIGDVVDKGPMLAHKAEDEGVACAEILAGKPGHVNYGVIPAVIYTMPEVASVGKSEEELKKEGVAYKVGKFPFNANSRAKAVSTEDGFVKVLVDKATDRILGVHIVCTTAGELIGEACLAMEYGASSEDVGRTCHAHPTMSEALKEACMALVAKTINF

Chain of trypanothione reductase (TR) from T. cruzi (P28593 whole entry): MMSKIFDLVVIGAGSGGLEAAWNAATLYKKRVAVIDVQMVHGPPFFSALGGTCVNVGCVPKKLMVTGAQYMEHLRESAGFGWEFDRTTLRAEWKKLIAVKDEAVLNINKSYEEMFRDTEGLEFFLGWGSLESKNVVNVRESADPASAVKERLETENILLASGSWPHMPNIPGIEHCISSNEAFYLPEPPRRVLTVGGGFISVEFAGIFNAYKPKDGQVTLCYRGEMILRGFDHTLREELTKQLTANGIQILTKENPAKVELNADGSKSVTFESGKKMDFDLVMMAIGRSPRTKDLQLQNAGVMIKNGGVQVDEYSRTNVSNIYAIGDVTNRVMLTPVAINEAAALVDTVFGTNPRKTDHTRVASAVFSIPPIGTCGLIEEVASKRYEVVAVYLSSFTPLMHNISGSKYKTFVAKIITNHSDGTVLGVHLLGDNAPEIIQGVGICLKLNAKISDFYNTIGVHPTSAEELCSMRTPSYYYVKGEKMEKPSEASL

Compound | inhibition of trypanothione reductase [1] | inhibition of lipoamide dehydrogenase [2]
CN(C)CC1CCC(CN(C)C)C1=O (stereo not shown) [NC884] | time-dependent irreversible inhibition | time-dependent irreversible inhibition
CN(C)CC1CCCC(CN(C)C)C1=O (stereo not shown) [NC901] | time-dependent irreversible inhibition | time-dependent irreversible inhibition
